Publication PMC6054074, “The medicinal thiosulfinates from garlic and Petiveria are not radical-trapping antioxidants in liposomes and cells, but lipophilic analogs are” (Chemical Science, 2015)
Like-named read-outs stand apart in the source and are kept apart here.

Molecular target: T1, papain (Carica papaya, UniProt P00784)
T1 sequence (P00784 134-345): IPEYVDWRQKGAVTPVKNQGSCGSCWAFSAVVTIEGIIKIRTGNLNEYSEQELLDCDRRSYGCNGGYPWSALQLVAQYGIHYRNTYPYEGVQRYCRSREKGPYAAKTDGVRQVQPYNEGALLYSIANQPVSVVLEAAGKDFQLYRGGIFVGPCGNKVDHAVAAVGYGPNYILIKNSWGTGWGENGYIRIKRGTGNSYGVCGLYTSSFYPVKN
Test: chromogenic protease assay (BAPNA, […] nm) after […] min preincubation of DTT-reduced papain with compound
Format: biochemical

Molecule `C=CCS[S+]([O-])CC=C` (stereo not drawn) [compound 1, allicin] has an IC50 of 1200 ± 200 nM.

`[O-][S+](Cc1ccccc1)SCc1ccccc1` (stereo not drawn) [compound 2, petivericin] showed an IC50 (read-out: IC50) of 1100 ± 100 nM.

For `CCCCCCc1ccc(CS[S+]([O-])Cc2ccc(CCCCCC)cc2)cc1` (stereo not drawn) [compound 4, hexylated petivericin], the IC50 (read-out: IC50) was 1000 ± 100 nM.
